Results on 47 compounds are retold here after patent publication US6448282B1, “1H-4(5)-substituted imidazole derivatives” (Gliatech, Inc., priority 1995, dated 2002).

SMILES strings stand for the structures. Where only a bound is given, the exact number is not on record here.

T1 sequence (Q9QYN8 whole entry): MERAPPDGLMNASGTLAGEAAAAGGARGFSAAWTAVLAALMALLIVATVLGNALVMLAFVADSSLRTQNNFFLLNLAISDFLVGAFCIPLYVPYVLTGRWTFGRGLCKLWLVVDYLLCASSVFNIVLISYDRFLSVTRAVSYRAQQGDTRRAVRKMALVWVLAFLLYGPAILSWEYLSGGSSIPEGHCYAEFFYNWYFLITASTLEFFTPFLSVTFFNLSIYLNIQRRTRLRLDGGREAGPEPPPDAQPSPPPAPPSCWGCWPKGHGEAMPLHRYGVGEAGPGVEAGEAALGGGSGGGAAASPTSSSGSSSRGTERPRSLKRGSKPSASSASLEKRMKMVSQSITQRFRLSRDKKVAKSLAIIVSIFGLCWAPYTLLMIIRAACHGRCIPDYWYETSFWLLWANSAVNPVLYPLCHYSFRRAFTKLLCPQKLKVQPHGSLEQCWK

The test system of one assay is rats.
Test: not given
The settings on record: cited from earlier work.
For the compound `S=C(NC1CCCCC1)N1CCC(c2cnc[nH]2)CC1` [thioperamide], the “wakefulness, slow wave and REM sleep” value is “increase wakefulness and decrease slow wave and REM sleep”.

A further assay has as its system histamine synthesis and release.
Test: not given
The settings on record: in vivo studies; cited from earlier work.
`S=C(NC1CCCCC1)N1CCC(c2cnc[nH]2)CC1` [thioperamide]: the “synthesis and release of histamine” value is “increase in synthesis and release of histamine”.

A further assay concerns the target T1, Histamine H3 receptor (Rattus norvegicus, UniProt Q9QYN8).
T1 construct: from tissue; host or cells: rat cerebral cortex membranes
Put plainly: In vitro histamine H3 receptor binding analysis, [3H]-Nα-methylhistamine, rat cortical membranes. The conditions noted are these: Ki=IC50/(1+([Ligand]/[Kd]). The method, then: Briefly, animals were sacrificed by decapitation and the cerebral cortex was rapidly removed. Rat cortices were mechanically homogenized with an Omni 1000 motor driven homogenizer in 10 volumes (wt/vol) of Krebs-Ringers Hepes buffer (pH 7.4) containing the following protease inhibitors; EDTA (10 mM), PMSF (0.1 mM), chymostatin (0.2 mg/50 ml) and leupeptin (0.2 mg/50 ml). The homogenate was centrifuged in a Sorvall at ˜40,000×g for 30 min. The pellet was resuspended by mechanical homogenization in 25 ml water and lysed on ice for 30 min. The homogenate was recentrifuged and the membrane lysis was repeated. The membranes were recentrifuged and the final pellet was resuspended in 14 volumes of water to give approximately 200 μg protein/100 μl final concentration. The suspension was stored at −80° C. prior to use. Protein concentrations were determined by Coomassie Plus Protein Assay (Pierce, Rockford, Ill.).
Nonspecific binding (NSB) was accounted for by the inclusion of thioperamide (10 μM). The samples were incubated for 40 min at 25° C. Samples were filtered through glass fiber strips, pre-washed with 0.3% polyethyleneimine, using a Brandell cell harvester. […] Filters were transferred to polyethylene minivials and counted in 3.5 ml of scintillation fluid (Ecolume, ICN Biomedicals, Inc.). […] Saturation and competition experiments were analyzed with the ReceptorFit saturation and competition curve fitting programs (Lundon Software, Inc., Cleveland, Ohio).
The compound `N[C@@H](CC(=O)OCc1ccccc1)C(=O)NCCc1c[nH]cn1` [Example 15, Phenylmethyl-3-(S)-amino-3-(N-(2-imidazol-4-ylethyl)carbamoyl)propanoate] registered a Ki of 81.6 ± 13.6 nM.

As to `O=C(NCCc1c[nH]cn1)[C@@H]1CCCN1` [Example 2, N-(2-Imidazol-4-ylethyl)-(S)-pyrrolidin-2-ylformamide], the Ki turned out to be 202 ± 2 nM.

As to `N[C@@H](Cc1c[nH]cn1)C(=O)NCCc1c[nH]cn1` [Example 16, 2-(S)-Amino-3-imidazol-4-yl-N-(2-imidazol-4-ylethyl)propanamide], the Ki is 3260 ± 457 nM.

`N=C(N)NCCC[C@H](N)C(=O)NCCc1c[nH]cn1` [Example 19, 5-(Amidinoamino)-2-(S)-amino-N-(2-imidazol-4-ylethyl)pentanamide] gave a Ki of 63 ± 1 nM.

As for `C(#CCCC1CCCCC1)CCc1c[nH]cn1` [Example 23, 4-(6-Cyclohexylhex-3-ynyl)imidazole], the inhibition constant Ki came out at 2.9 ± 0.2 nM.

Take `C(#CCCN1CCOCC1)CCc1c[nH]cn1` [Example 35, 4-(6-Imidazol-4-ylhex-3-ynyl)morpholine]: the Ki was determined as 1210 ± 80 nM.

Consider `N[C@@H](CCc1ccccc1)C(=O)NCCc1c[nH]cn1` [Example 11, 2-(S)-Amino-N-(2-imidazol-4-ylethyl)-4-phenylbutanamide], for which the affinity, expressed as Ki, was 10.9 ± 1.7 nM.

`N[C@H](Cc1ccccc1)C(=O)NCCc1c[nH]cn1` [Example 4, 2-(R)-Amino-N-(2-imidazol-4-yletyl)-3-phenyl propanamide]: the inhibition constant (Ki) is more than 10000 nM.

`C(#CCCc1c[nH]cn1)CCCC1CCCCC1` [Example 37, 4-(7-Cyclohexylhept-3-ynyl)imidazole] gave a Ki of 3.4 ± 1.7 nM.

In turn, `N[C@@H](Cc1ccccc1)C(=O)NCCc1c[nH]cn1` [Example 1, 2-(S)-Amino-N-(2-imidazol-4-yletyl)-3-phenyl propanamide] gave a Ki of 104 ± 14 nM.

As to `N[C@@H](Cc1ccc(OCc2ccccc2)cc1)C(=O)NCCc1c[nH]cn1` [Example 13, 2-(S)-Amino-N-(2-imidazol-4-ylethyl)-3-(4-(phenylmethoxy)phenyl) propanamide], the Ki turned out to be 199 ± 24 nM. This Ki is about 1.9-fold higher than that of the compound before.

Compound `CCCCCCCC#CCCc1c[nH]cn1` [Example 34, 4-Undec-3-ynylimidazole] showed a Ki of 2.8 ± 0.7 nM.

The compound `C#CCCc1c[nH]cn1` [Example 45, 4-But-3-ynylimidazole] gave an inhibitory constant (Ki) of 66 ± 5.5 nM.

`CCC#CCCc1c[nH]cn1` [Example 27, 4-Hex-3-ynylimidazole] yielded a Ki of 79 ± 22 nM.

Regarding `CN(CCc1c[nH]cn1)C(=O)[C@@H]1CC2CCCCC2N1` (stereo partly drawn) [Example 18, (7-Azabicyclo[4.3.0]non-(S)-8-yl)-N-(2-imidazol-4-ylethyl)-N-methylformamide], the inhibitory constant (Ki) came out at 45 ± 11 nM.

`N[C@@H](CC1CCCCC1)C(=O)NCCc1cnc[nH]1` [Example 6, 2-(S)-Amino-3-cyclohexyl-N-(2-imidazol-4-ylethyl)propanamide] showed a Ki of 30.8 ± 2.1 nM.

Consider `CC(C)CCC#CCCc1c[nH]cn1` [Example 29, 4-(7-Methyloct-3-ynyl)imidazole], for which the Ki came to 3.7 ± 1.1 nM.

Consider `C(#CCCc1c[nH]cn1)CCCc1ccccc1` [Example 39, 4-(7-Phenylhept-3-ynyl)imidazole], for which the Ki came to 6.7 ± 0.6 nM.

With `C(#Cc1c[nH]cn1)CCCC1CCCCC1` [Example 36, 4-(5-Cyclohexylpent-1-ynyl)imidazole], the Ki was 863 ± 139 nM.

For `BrC(Br)=Cc1c[nH]cn1` [Example 48, 4-(2,2-Dibromovinyl)imidazole], the Ki was more than 10000 nM.

Consider `C[C@H](Cc1c[nH]cn1)NC(=O)[C@@H]1CC2CCCCC2N1` (stereo partly drawn) [Example 21], for which the Ki amounted to 231 ± 15 nM.

`C(=C/CCC1CCCCC1)/CCc1c[nH]cn1` [Example 24, 4-(6-Cyclohexyl-cis-3-enyl)imidazole] had a Ki of 4.2 ± 0.6 nM.

Regarding `C#Cc1c[nH]cn1` [Example 46, 4-Ethynylimidazole], the Ki is more than 10000 nM.

On to `Cc1c(C)c(S(=O)(=O)NC(=N)NCCC[C@H](N)C(=O)NCCc2c[nH]cn2)c(C)c2c1OC(C)(C)CC2` [Example 17, 2-(S)-Amino-N-(2-imidazol-4ylethyl)-5-((imino(((2,2,5,7,8-pentamethylchroman-6-yl)sulfonyl)amino)methyl)amino)pentanamide], for which the affinity corresponds to a Ki of 14 ± 3 nM.

`N[C@@H](Cc1cccc2ccccc12)C(=O)NCCc1c[nH]cn1` [Example 8, 2-(S)-Amino-N-(2-imidazol-4-ylethyl)-3-naphthylpropanamide] gave an inhibitory constant (Ki) of 299 ± 82 nM.

The compound `CC(C)C[C@H](N)C(=O)NCCc1c[nH]cn1` [Example 20, 2-(S)-Amino-N-(2-imidazol-4-ylethyl)-4-methylpentanamide] yielded a Ki of 122 ± 37 nM.

`C(#CCCC1CCCC1)CCc1c[nH]cn1` [Example 30, 4-(6-Cyclopentylhex-3-ynyl)imidazole] showed a Ki of 0.95 ± 0.3 nM. This Ki lies about 130-fold lower than the previous one.

Regarding `CN[C@@H](Cc1ccccc1)C(=O)NCCc1c[nH]cn1` [Example 7], the Ki came out at 1650 ± 310 nM. Compared with the last compound, the Ki is about 1700-fold higher.

The compound `O=C(NCCc1c[nH]cn1)[C@@H]1Cc2ccccc2CN1` [Example 3] yielded a Ki of 82.7 ± 7.7 nM.

As to `N[C@H](C(=O)NCCc1c[nH]cn1)c1ccccc1` [Example 9, 2-(S)-Amino-N-(2-imidazol-4-ylethyl)-2-phenylethanamide], the affinity, expressed as Ki, was 630 ± 51 nM.

In turn, `c1ncc(CCCCCCC2CCCCC2)[nH]1` [Example 41, 4-(6-Cyclohexylhexyl)imidazole] showed a Ki of 74.5 nM.

Compound `O=C(NCCc1c[nH]cn1)[C@@H]1CC2CCCCC2N1` (stereo partly drawn) [Example 12, (7-Azabicyclo[4.3.0]non-(S)-8-yl)-N-(2-imidazol-4-ylethyl)formamide] registered a Ki of 11.1 ± 0.4 nM.

Take `BrC(Br)=CCCc1c[nH]cn1` [Example 47, 4-(4,4-Dibromobut-3-enyl)imidazole]: the inhibition constant Ki came out at 26 ± 9.6 nM.

`N[C@H](/C=C/CCc1c[nH]cn1)CC1CCCCC1` [Example 26, 1-Cyclohexyl-6-imidazol-4-ylhex-trans-3-en-2-(S)-ylamine] registered a Ki of 1 ± 0.1 nM.

As to `c1nc(CCNC[C@@H]2CC3CCCCC3N2)c[nH]1` (stereo partly drawn) [Example 22, ((7-Azabicyclo[4.3.0]non-(S)-8-yl)methyl)(2-imidazol-4-ylethyl)amine], the affinity corresponds to a Ki of 66 ± 4 nM.

The compound `N[C@@H](COCc1ccccc1)C(=O)NCCc1c[nH]cn1` [Example 14, 2-(S)-Amino-N-(2-imidazol-4-ylethyl)-3-(phenylmethoxy)propanamide] registered an inhibition constant (Ki) of 122 ± 11 nM.

In turn, `C(=C/CCc1c[nH]cn1)/CCc1ccccc1` [Example 42, 4-(6-Phenylhex-cis-3-enyl)imidazole] yielded a Ki of 5.5 ± 0.02 nM. Compared with the last compound, the Ki is about 22-fold lower.

Compound `CC(=O)N[C@@H](CC1CCCCC1)C(=O)NCCc1c[nH]cn1` [Example 10, 2-(S)-(Acetylamino)-3-cycohexyl-N-(2-imidazol-4-ylethyl)propanamide] came in with a Ki of 5490 ± 255 nM.

Compound `CCCC#CCCc1c[nH]cn1` [Example 28, 4-Heptyl-3-ynylimidazole] had a Ki of 27 ± 7.5 nM.

Take `C(#Cc1c[nH]cn1)CCCc1ccccc1` [Example 38, 4-(5-Phenylpent-1-ynyl)imidazole]: the affinity, expressed as Ki, was 591 ± 36 nM.

The compound `N[C@@H](Cc1ccc(F)cc1)C(=O)NCCc1c[nH]cn1` [Example 5, 2-(S)-Amino-3-(4-flurophenyl)-N-(2-imidazoyl-4-ylethyl)propanamide] came in with a Ki of 84.5 ± 12.8 nM.

The compound `CCCCC#CCCc1c[nH]cn1` [Example 40, 4-Oct-3-ynylimidazole] showed a Ki of 3 ± 0.2 nM. Compared with the last compound, the Ki is about 28-fold lower.

On to `C(=C\CCC1CCCCC1)/CCc1c[nH]cn1` [Example 25, 4-(6-Cyclohexylhex-trans-3-enyl)imidazole], for which the Ki came to 16 ± 2 nM.

In turn, `CCCCCC#CCCc1c[nH]cn1` [Example 33, 4-Non-3-ynylimidazole] gave a Ki of 5.6 ± 1 nM. Against the preceding compound, the Ki is about 2.9-fold lower.

Compound `CC(C)(C)CCC#CCCc1c[nH]cn1` [Example 32, 4-(7,7-Dimethyloct-3-ynyl)imidazole] yielded a Ki of 0.8 ± 0.4 nM.

The next assay deals with cat.
Test: not given
The conditions noted are these: cited from earlier work.
In the case of `S=C(NC1CCCCC1)N1CCC(c2cnc[nH]2)CC1` [thioperamide], the wakefulness result is on record as “enhanced wakefulness in a dose-dependent fashion”.

Staying with this assay, now noted: oral administration; cited from earlier work.
As to `C[C@@H](N)Cc1cnc[nH]1` [RAMHA], the “deep slow wave sleep” value was “significant increase”.

The next assay deals with electrically-induced convulsions.
Test: not given
The settings on record: after electrically-induced convulsions; cited from earlier work.
With `S=C(NC1CCCCC1)N1CCC(c2cnc[nH]2)CC1` [thioperamide], the “durations of every convulsive phase” value is “significantly and dose-dependently decrease”.

Still in this assay, the particulars now being: in vivo; cited from earlier work.
With `S=C(NC1CCCCC1)N1CCC(c2cnc[nH]2)CC1` [thioperamide], the electroconvulsive threshold entry was “increase the electroconvulsive threshold”.

For orientation: Ki means the dissociation constant of the complex between target and ligand, obtained from inhibition or displacement.
